According to US5225416A, “1,2,3,6-tetrahydropyridine derivatives useful for improving cerebral blood circulation” (Richter Gedeon Vegyeszeti Termekek Gyara Rt., priority 1990, dated 1993):

What was measured:
Assay type in all cases: in vivo
male (CFLP LATI) mice [1] = test: Cytotoxic hypoxia (KCN), antihypoxic effect in mice; conditions: Mus musculus, po, read-out: ED50 cytotoxic hypoxia
male (CFLP LATI) mice [2] = test: Hypobaric hypoxia (HH), antihypoxic effect in mice; conditions: Mus musculus, po, read-out: ED50 hypobaric hypoxia
Experimental: (§1) Male (CFLP LATI) mice weighing 24-26 g and male spontaneous hypertensive rats (SHR) weighing 160-180 g were used as test animals. The test compounds were administered orally in a volume of 10 ml/kg 1 hour before the test.
Animals surviving by 100% longer than the average survival of the control group were considered as protected.

male (CFLP LATI) mice [3] = test: Anoxic asphyxia (asphyxial anoxia), antihypoxic effect in mice; conditions: Mus musculus, po, read-out: ED50 asphyxial anoxia
Experimental: as §1
(§2) The mice were treated after 16 hours fasting with the oral dosage of the test compounds. 1 hour after the treatment the animals were placed to 100 ml sealed glasses and the survival time of the animals was measured. The groups consisting of 10 animals and treated with the test compounds were considered protected if the average survival time was by 30 percent longer than the survival of the group treated with placebo. From the percentage of the surviving animals the 50% effective dosage (ED50) was calculated by probit analysis.

[4] = system: mice and spontaneous hypertensive rats; test: Hypoxic models taken together (asphyxial anoxia, hypobaric hypoxia, cytotoxic hypoxia, hypobaric hypoxia SHR)
Experimental: as §1, §2
After 16 hours of fasting and 1 hour of pretreatment the animals were placed to a 6-liter exsiccator and the pressure was reduced within 20 seconds to 22.66 kPa (170 Hgmm), and from this time on the survival time was measured until the last breathing movement. Animals surviving by 100% longer than the average survival of the control group were considered as protected.
The animals were treated after 1 hour pretreatment with an i.v. dosage of 5 mg/kg potassium cyanide. The survival time was measured from the administration of potassium cyanide to the last breathing movement. The protected condition was determined according to the method described for anoxic asphyxia.
(§3) The rats were placed to a 6-liter exsiccator 1 hour after pretreatment to each exsiccator 2 rats were placed. The pressure was reduced in the exsiccator within 20 seconds to 22.66 kPa (170 Hgmm) and the survival time was measured from this time on until the last breathing movement. Animals which survived by 30 percent longer than the average survival of the control group were considered as protected. From the percentage of the protected animals the ED50 i.e. the 50% effective dosage was calculated by probit analysis with the pertaining 95% fiducial limit.
For testing the active ingredients various forms of hypoxia were used. In case of asphyxial anoxia the complete loss of the oxygen supply, at hypobaric hypoxia the reducing of the oxygen saturation condition of the haemoglobin and in case of cytotoxic hypoxia the blocking of the mytochondrial breathing enzime cause a functional disorganisation and necrosis of the cells, even death in otherwise healthy mice. The spontaneous hypertensive rats are more sensitive to the hypoxial influences than the normotensive animals as the survival chance of a person suffering from hypertension is also worse after suffering from hypoxial influences.

[5] = system: male spontaneous hypertensive rats (SHR); test: Hypobaric hypoxia in SHR rats; conditions: Rattus norvegicus, po, 1 hour before the test, 22.66 kPa, protected = survival 30 percent longer, 95% fiducial limit on next line
Experimental: as §1, §3

[6] = 1 hour before the test, mice, KCN 5 mg/kg i.v., 95% fiducial limit on next line
[7] = 1 hour before the test, mice, 22.66 kPa, protected = survival 100% longer, 95% fiducial limit on next line
[8] = 1 hour before the test, mice, protected = survival 30 percent longer, probit analysis

SMILES	ED50 (male (CFLP LATI) mice [1])	ED50 (male (CFLP LATI) mice [2])	ED50 (male (CFLP LATI) mice [3])	dosage relative to that of vincamine ([4]; antihypoxic effect on two models)	antihypoxic effect ([4]; number of models on which the effect could be proved)	ED50 [5]	ED50 (male (CFLP LATI) mice [1]; [6])	ED50 (male (CFLP LATI) mice [2]; [7])	ED50 (male (CFLP LATI) mice [3]; [8])	effect in all hypoxic models used ([4]; all hypoxic models, in words)	survival time of the animals ([4]; all hypoxic models, in words)
NC(=O)CN1CCCC1=O [Piracetam, 2-oxo-1-pyrrolidinyl-acetic amide]	132 mg/kg	100 mg/kg	100 mg/kg	5-10 times	could be proved on two models						
CC[C@]12CCCN3CCc4c(n(c5ccccc45)[C@@](O)(C(=O)OC)C1)[C@@H]32 [Vincamin, (+)-14β-hydroxy-14α-methoxy-carbonyl-14,15-dihydro-eburnamenine]						27.9 mg/kg	27 mg/kg	60.7 mg/kg	51.1 mg/kg	effective	prolonged
OC(CCN1CC=C(c2ccccc2)CC1)c1ccc(Cc2ccc(Cl)cc2)cc1 (stereo not drawn) [Example 0207724]						8.2 mg/kg	17.5 mg/kg	27.5 mg/kg	50 mg/kg		
